In brackets after ≈: the same amount, converted by molar mass.
Assay: physchem
Conditions: buffer solution without triazine compound

## CC(C)Cn1cnc2c(N)nc3ccccc3c21 [Imiquimod]
pH 6.05, aqueous buffer
  solubility: 20 µg/mL (≈ 83.2 µM)
pH 7.82, aqueous buffer
  solubility: 1.2 µg/mL (≈ 4.99 µM)

From patent US20080039533A1, “Bioactive Compositions Comprising Triazines” (3M INNOVATIVE PROPERTIES COMPANY, priority 2003, published 2008)
